Measured values as given in US20210403858A1, “Bacillus strain and microbial preparation of bacillus and method of using microbial preparation” (ROLLING GREENS CO., LTD., priority 2020, published 2021).

Key:
[1] = tested on: rice seedlings; assay: IAA sensitivity test on rice seedlings; format: in vivo; conditions: 4 days
Procedure: Taking rice and lettuce for example, IAA sensitivity of the microbial preparation is tested in steps of: disinfecting and germinating rice seedlings; putting the rice seedlings in a sterilized Petri dish in which a filter paper is disposed; […]; moving the sterilized Petri dish into a plant growth box for 4 days; measuring an average height of buds of the rice seedlings and an average height of roots of the rice seedlings;

[2] = tested on: lettuce; assay: IAA sensitivity test on lettuce; format: in vivo
Procedure: disinfecting seeds of the lettuce with 5% sodium hypochlorite and putting the seeds of the lettuce in another sterilized Petri dish in which a filter paper is disposed; adding 3 mL of 0.03 μM, 3 μM, 30 μM, and 300 μM of IAA aqueous solutions respectively; moving another sterilized Petri dish into another plant growth box for 3 days; and measuring a germination rate and a height of each lettuce and a length of a root of each lettuce.

Compound: O=C(O)Cc1c[nH]c2ccccc12 [IAA]
- growth of the roots of the rice seedlings ([1]; IAA 0.03 μM to 30 μM, FIG. 1): does not promote a growth of the roots
- growth of the roots of the rice seedlings ([1]; IAA 300 μM): limited
- height of lettuce sprouts ([2]; IAA 0.03 μM, 3 days (no IAA: 5.3 mm)): 3.5 mm
- length of lettuce roots ([2]; IAA 0.03 μM, 3 days (no IAA: 14.8 mm)): 8.8 mm
- germination rate of the seeds of the lettuce ([2]; IAA 300 μM, 3 days (no IAA: 78%)): 13%
